PMC9423655, “Huntington’s disease phenotypes are improved via mTORC1 modulation by small molecule therapy” (PLoS ONE, 2022)

Experiments:
mTORC1 pathway (pS6) = experiment: pS6 immunoblot of tissues after one oral dose in C57BL/6 mice; assay type: in vivo; conditions: single oral 160 mg/kg
Experimental: Specific regions of the brain and heart were homogenized using a Next Advance Bullet Blender Storm in Lysis Buffer (Cell lysis buffer: 1% Triton X-100, 50 mM HEPES pH 7.4, 100 mM sodium chloride, 2 mM EDTA, 10 mM Beta-glycerophosphate, 10 mM Sodium pyrophosphate, and 1 protease inhibitor) at 4°C. Lysates were cleared by centrifugation at 13,200 rpm at 4°C for 10 minutes. Equal amounts of total protein from each sample were denatured and, resolved by SDS-PAGE. Membranes were imaged using the LI-COR imaging system. Proteins levels are normalized to tubulin, actin or GAPDH levels and further normalized to vehicle treated mice for each tissue.
Fig 1 NV-5297 is a leucine analog activating the mTORC1 pathway in the brain and peripheral tissues. (A) NV-5297 chemical structure. Representative immunoblots of phosphorylated S6 (^S240/244pS6) from homogenized tissues from C57BL/6 mice orally dosed once with NV-5297 (160 mg/kg) and sacrificed 1 hour later (B) and quantification of the immunoblots normalized to loading controls and vehicle treated mice (n = 10 per treatment) (C). […]

N171-82Q HD mice = experiment: Chronic 6-week treatment: echocardiography and heart weight; assay type: in vivo; conditions: N171-82Q mice, 160 mg/kg daily 6 weeks
From the text: Animals were sacrificed by live decapitation one hour after the last oral dosing. Whole hearts were excised, blot-dried and weighed on an analytical balance. The heart was bisected transversely and the apical halves was preserved for cardiomyocyte and fibrosis staining. Left tibias were isolated and measured with an electronic caliper. The brain left hemisphere was preserved for MSN size measurement. The brain right hemisphere was microdissected and the medial pre-frontal cortex, striatum, cortex, hippocampus and cerebellum were collected.
Mice were anesthetized with 2% isoflurane and restrained on a stage with electrocardiogram (EKG) sensors. Transthoracic echocardiograms were performed using the Vevo 3100 Imaging System with a linear array MX550D transducer. Images were acquired by an experienced echocardiographer and then analyzed offline using the Vevo LAB analysis software. Parasternal long axis views and short axis views were used to assess left ventricular function. Measurements were performed to evaluate left ventricular dimensions during both systole and diastole of the cardiac cycle. The Vevo LAB left ventricle [LV] analysis tool, LV trace, was used to calculate cardiac output [CO] (heart rate ∙ stroke volume), fractional shortening [FS] (ventricle diameter at the end of the diastole–ventricle diameter at the end of the systole), ejection fraction [EF] (percentage of blood ejected by the left ventricle by heart beat), stroke volume (SV) (blood volume ejected from the left ventricle per beat), heart rate [HR] (bpm), left ventricular mass [LVmass], dimensions and volumes. Both imaging and analysis were performed by an operator blinded to the mice experimental treatment.
Fig 5 Oral dosing with NV-5297 over 6 weeks improves cardiac function and activates the mTORC1 pathway. […] (E) Quantification of the immunoblots for homogenized heart isolated 1 hour after oral dosing with NV-5297 (160 mg/kg; n = 14) normalized to loading control levels and further normalized to vehicle (Veh) treated mice (n = 15). […]

CC(C)(C[C@H](N)C(=O)O)C(F)(F)F [NV-5297, (S)-2-amino-5,5,5-trifluoro-4,4-dimethylpentanoic acid]
pS6 in brain regions relative to controls (mTORC1 pathway (pS6); sacrificed 1 hour later): increased pS6 in all regions sampled | pS6 in peripheral tissues relative to vehicle (mTORC1 pathway (pS6); tissues collected 1 hour later): increased pS6 | heart mass (N171-82Q HD mice): no discernable effect | ejection fraction compared to vehicle (N171-82Q HD mice; echocardiography): increased | fractional shortening compared to vehicle (N171-82Q HD mice; echocardiography): increased
